Square brackets hold non-standard residues; d marks the D form. Peptide text beside a SMILES is read from it. 1Nal = N[C@@H](Cc1cccc2ccccc12)C(=O)O; Arg(Me) = CNC(=N)NCCC[C@H](N)C(=O)O; 3Pal = N[C@@H](Cc1cccnc1)C(=O)O; azaGly = NNC(=O)O
Tests used:
hOT7T175 [1] = target: T1, hOT7T175 (Homo sapiens, UniProt Q969F8, L364H); experiment: hOT7T175 receptor binding activity: binding inhibition of Cy-5-labeled metastin (40-54) on hOT7T175-expressed CHO cells; design: expressed in transfected cells; host or cells: CHO cells
T1 sequence (Q969F8 whole entry L364H): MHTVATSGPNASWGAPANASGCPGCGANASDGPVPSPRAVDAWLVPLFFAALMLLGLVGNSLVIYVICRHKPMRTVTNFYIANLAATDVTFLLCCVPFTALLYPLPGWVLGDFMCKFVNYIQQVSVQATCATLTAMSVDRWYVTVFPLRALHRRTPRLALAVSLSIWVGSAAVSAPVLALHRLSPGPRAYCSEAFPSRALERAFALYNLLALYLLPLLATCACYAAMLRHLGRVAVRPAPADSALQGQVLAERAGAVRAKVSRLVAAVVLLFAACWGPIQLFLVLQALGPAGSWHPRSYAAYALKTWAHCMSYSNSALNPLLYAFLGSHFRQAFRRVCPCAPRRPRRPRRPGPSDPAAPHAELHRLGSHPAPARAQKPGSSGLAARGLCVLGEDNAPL
Experimental: Assay for hOT7T175 Receptor Binding Activity
h0T7T175-Expressed CHO cells were cultured in MEM-cc medium (nucleic acid-free) containing 10% dialyzed serum. The medium was removed and the adherent cells were washed with PBS. Then, PBS containing 5 mM EDTA was added and the cells were scraped from a flask with a cell scraper. […] To each well of a 96-Well Black Clear Bottom Plate (Applied Biosystems, Inc.), 10 μL of assay buffer containing 1% dimethylsulfoxide was added to examine total binding, 10 μL of 10 μM non-labeled peptide (having the same amino acid sequence as that of the labeled one) solution diluted with assay buffer to examine non-specific binding, and 10 μL of a test compound diluted with assay buffer to examine the binding inhibition activity of the test compound, respectively. Furthermore, 90 μL each of the cell suspension was dispensed to each well. […] The specific binding is a value obtained by subtracting the non-specific binding from the total binding.

hOT7T175 [2] = target: T1, hOT7T175; experiment: Intracellular Ca ion level-increasing activity using FLIPR in hOT7T175/CHO; type: cell-based; design: expressed in transfected cells; host or cells: CHO/dhfr- cells, obtained from ATCC; details: relative, Metastin (1-54) = 1

For CC(C)C[C@H](NC(=O)CNC(=O)[C@H](Cc1ccccc1)NC(=O)[C@H](CO)NC(=O)[C@H](CC(N)=O)NC(=O)[C@H](Cc1c[nH]c2ccccc12)NC(=O)[C@H](CC(N)=O)NC(=O)[C@H](Cc1ccc(O)cc1)NC(=O)[C@H](CC(N)=O)NC(=O)[C@@H]1CCCN1C(=O)[C@@H](N)CC(C)C)C(=O)N[C@@H](CCCNC(=N)N)C(=O)N[C@@H](Cc1ccccc1)C(N)=O [Compound No. 32, reference compound], the IC50 (hOT7T175 [1]) was 0.025 µM and the “Specific Activity (intracellular Ca ion level-increasing activity)” value (hOT7T175 [2]) was 10.
In the case of CNC(=N)NCCC[C@H](NC(=O)[C@H](CC(C)C)NC(=O)CNC(=O)[C@H](Cc1ccccc1)NC(=O)[C@H](CO)NC(=O)[C@H](CC(N)=O)NC(=O)[C@H](CO)NC(=O)[C@H](CC(N)=O)NC(=O)[C@H](N)Cc1ccc(O)cc1)C(=O)N[C@@H](Cc1ccccc1)C(N)=O [Compound No. 170] (H-[dY]NSNSFGL[Arg(Me)]F-NH2; N-terminus assumed), the IC50 (hOT7T175 [1]) is reported as 0.26 µM and the “Specific Activity (intracellular Ca ion level-increasing activity)” value (hOT7T175 [2]) is reported as 1.
For CNC(=N)NCCC[C@H](NC(=O)[C@@H](NC(=O)CNC(=O)[C@H](Cc1ccccc1)NC(=O)[C@H](CO)NC(=O)[C@H](CC(N)=O)NC(=O)[C@H](Cc1c[nH]c2ccccc12)NC(=O)[C@H](CC(N)=O)NC(=O)[C@H](N)Cc1ccc(O)cc1)C(C)C)C(=O)N[C@@H](Cc1ccccc1)C(N)=O [Compound No. 213] (H-[dY]NWNSFGV[Arg(Me)]F-NH2), the IC50 (hOT7T175 [1]) was 0.19 µM and the “Specific Activity (intracellular Ca ion level-increasing activity)” value (hOT7T175 [2]) was 2.
In the case of CC(C)C[C@H](NC(=O)CNC(=O)[C@H](Cc1ccccc1)NC(=O)[C@H](CO)NC(=O)[C@H](CC(N)=O)NC(=O)[C@H](Cc1c[nH]c2ccccc12)NC(=O)[C@H](CC(N)=O)NC(=O)[C@@H](N)Cc1ccc(O)cc1)C(=O)N[C@@H](CCCNC(=N)N)C(=O)N[C@@H](Cc1ccc(O)cc1)C(N)=O [Compound No. 109] (H-YNWNSFGLRY-NH2), the IC50 (hOT7T175 [1]) is reported as 0.023 µM and the “Specific Activity (intracellular Ca ion level-increasing activity)” value (hOT7T175 [2]) is reported as 20.
CNC(=N)NCCC[C@H](NC(=O)[C@H](CC(C)C)NC(=O)NNC(=O)[C@H](Cc1ccccc1)NC(=O)[C@H](CO)NC(=O)[C@H](CC(N)=O)NC(=O)[C@H](Cc1cccc2ccccc12)NC(=O)[C@H](CC(N)=O)NC(=O)[C@H](N)Cc1ccc(O)cc1)C(=O)N[C@@H](Cc1ccccc1)C(N)=O [Compound No. 245, D-Tyr-Asn-Nal(1)-Asn-Ser-Phe-AzaGly-Leu-Arg(Me)-Phe-NH2] (H-[dY]N[1Nal]NSF[azaGly]L[Arg(Me)]F-NH2) was tested, and the IC50 (hOT7T175 [1]) was 0.098 µM and the “Specific Activity (intracellular Ca ion level-increasing activity)” value (hOT7T175 [2]) was 1.
CNC(=N)NCCC[C@H](NC(=O)[C@H](CC(C)C)NC(=O)CNC(=O)[C@H](Cc1ccccc1)NC(=O)[C@H](CO)NC(=O)[C@H](CC(N)=O)NC(=O)[C@H](CO)NC(=O)[C@H](N)Cc1ccc(O)cc1)C(=O)N[C@@H](Cc1ccccc1)C(N)=O [Compound No. 226] (H-[dY]SNSFGL[Arg(Me)]F-NH2) showed an IC50 (hOT7T175 [1]) of 0.1 µM.
Work on CC(C)[C@H](NC(=O)CNC(=O)[C@H](Cc1ccccc1)NC(=O)[C@H](CO)NC(=O)[C@H](CC(N)=O)NC(=O)[C@H](Cc1c[nH]c2ccccc12)NC(=O)[C@H](CC(N)=O)NC(=O)[C@@H](N)Cc1ccc(O)cc1)C(=O)N[C@@H](CCCNC(=N)N)C(=O)N[C@@H](Cc1ccccc1)C(N)=O [Compound No. 107] (H-YNWNSFGVRF-NH2) yielded an IC50 (hOT7T175 [1]) of 0.12 µM.
Molecule CC(C)C[C@H](NC(=O)CNC(=O)[C@H](Cc1ccccc1)NC(=O)[C@H](CO)NC(=O)[C@H](CC(N)=O)NC(=O)[C@H](Cc1c[nH]c2ccccc12)NC(=O)[C@H](CC(=O)O)NC(=O)[C@@H](N)Cc1ccc(O)cc1)C(=O)N[C@@H](CCCNC(=N)N)C(=O)N[C@@H](Cc1ccccc1)C(N)=O [Compound No. 57] (H-YDWNSFGLRF-NH2) has an IC50 (hOT7T175 [1]) of 0.1 µM.
For CNC(=N)NCCC[C@H](NC(=O)[C@H](CC(C)C)NC(=O)NNC(=O)[C@H](Cc1ccccc1)NC(=O)[C@H](CO)NC(=O)[C@H](CC(N)=O)NC(=O)[C@H](Cc1cccnc1)NC(=O)[C@H](CC(N)=O)NC(=O)[C@H](N)Cc1ccc(O)cc1)C(=O)N[C@@H](Cc1ccccc1)C(N)=O [Compound No. 251, D-Tyr-Asn-Pya(3)-Asn-Ser-Phe-AzaGly-Leu-Arg(Me)-Phe-NH2] (H-[dY]N[3Pal]NSF[azaGly]L[Arg(Me)]F-NH2), the IC50 (hOT7T175 [1]) was 0.087 µM.

From patent publication US8361968B2 (Takeda Pharmaceutical Company Limited, priority 2002, dated 2013)
